Data: ChEMBL document CHEMBL4613208, “Isatin derivatives and their anti-bacterial activities” (Eur J Med Chem, 2019)
≈ marks a conversion by molar mass, not a printed value.

How the values were obtained:
[1] = system: Pseudomonas aeruginosa; test: Antibacterial activity against Pseudomonas aeruginosa; format: functional, organism-based
[2] = system: Salmonella typhi; test: Antibacterial activity against Salmonella typhi; format: functional, Salmonella enterica subsp. enterica serovar Typhi; settings: Salmonella enterica
[3] = system: Bacillus cereus; test: Antibacterial activity against Bacillus cereus assessed as zone of inhibition at 100 ug/ml; format: functional; settings: read-out: IZ
[4] = system: Staphylococcus aureus; test: Antibacterial activity against Staphylococcus aureus assessed as zone of inhibition at 100 ug/ml; format: functional; settings: read-out: IZ
[5] = system: Escherichia coli; test: Antibacterial activity against Escherichia coli assessed as zone of inhibition at 100 ug/ml; format: functional; settings: read-out: IZ
[6] = system: Pseudomonas aeruginosa; test: Antibacterial activity against Pseudomonas aeruginosa assessed as zone of inhibition at 100 ug/ml; format: functional; settings: read-out: IZ
[7] = system: Escherichia coli; test: Antibacterial activity against Escherichia coli; format: functional, organism-based
[8] = system: Staphylococcus aureus; test: Antibacterial activity against Staphylococcus aureus; format: functional, organism-based

SMILES | MIC [1] | MIC [2] [nM] | zone of inhibition at 100 µg/mL [3] [mm] | zone of inhibition at 100 µg/mL [4] [mm] | zone of inhibition at 100 µg/mL [5] [mm] | zone of inhibition at 100 µg/mL [6] [mm] | other results
Cc1ccccc1NC(=O)CN1C(=O)/C(=N\c2ccccc2)c2ccccc21 | 3 to 324 nM | 3 to 324 (≈ 1.11 to 120 ng/mL) |  |  |  |  | 
Cc1nc2ccccc2cc1C(=O)N/N=C1\C(=O)Nc2cccc(Cl)c21 |  |  | 6 to 19 | 6 to 19 | 6 to 19 | 6 to 19 | 
Cc1ccc(C)c(/N=C2\C(=O)N(CC(=O)Nc3ccccc3C)c3ccccc32)c1 | 3 to 324 nM | 3 to 324 (≈ 1.19 to 129 ng/mL) |  |  |  |  | 
O=C1Nc2ccccc2/C1=N/NC(=O)c1cccc(Br)c1 |  |  |  |  |  |  | IC50 [1]: 30 to 50 µM; IC50 [7]: 30 to 50 µM; IC50 [8]: 30 to 50 µM
Cc1c(C)c2c(c(C)c1O)CCC(C)(C(=O)N/N=C1\C(=O)N(C)c3ccc(Cl)cc31)O2 (stereo not given) | 12.5 to 100 µg/mL |  |  |  |  |  | MIC [7]: 12.5 to 100 µg/mL (≈ 28.3 to 226 µM); MIC [8]: 12.5 to 100 µg/mL (≈ 28.3 to 226 µM)
O=C(COc1ccc(N2C(=O)CSC2c2ccc(Br)cc2)c2cccnc12)N/N=C1\C(=O)N(CN2CCCCC2)c2ccccc21 (stereo not given) |  |  | 6 to 19 | 6 to 19 | 6 to 19 | 6 to 19 | 
Cc1nc2ccccc2cc1C(=O)N/N=C1\C(=O)Nc2ccc(F)c(Cl)c21 |  |  | 6 to 19 | 6 to 19 | 6 to 19 | 6 to 19 | 
Cc1ccc(C)c(/N=C2\C(=O)N(CC(=O)Nc3cc(C)ccc3C)c3ccccc32)c1 | 3 to 324 nM | 3 to 324 (≈ 1.23 to 133 ng/mL) |  |  |  |  | 
COc1ccc(C2SCC(=O)N2c2ccc(OCC(=O)N/N=C3\C(=O)N(CN4CCCCC4)c4ccccc43)c3ncccc23)cc1 (stereo not given) |  |  | 6 to 19 | 6 to 19 | 6 to 19 | 6 to 19 | 
Cc1c(C)c2c(c(C)c1O)CCC(C)(C(=O)N/N=C1\C(=O)Nc3ccccc31)O2 (stereo not given) | 12.5 to 100 µg/mL |  |  |  |  |  | MIC [7]: 12.5 to 100 µg/mL (≈ 31.8 to 254 µM); MIC [8]: 12.5 to 100 µg/mL (≈ 31.8 to 254 µM)
O=C(CN1C(=O)/C(=N\c2ccccc2)c2ccccc21)Nc1ccccc1 | 3 to 324 nM | 3 to 324 (≈ 1.07 to 115 ng/mL) |  |  |  |  | 
O=C(COc1ccc(N2C(=O)CSC2c2ccc([N+](=O)[O-])cc2)c2cccnc12)N/N=C1\C(=O)N(CN2CCCCC2)c2ccccc21 (stereo not given) |  |  | 6 to 19 | 6 to 19 | 6 to 19 | 6 to 19 | 
O=C(COc1ccc(N2C(=O)CSC2c2ccccc2)c2cccnc12)N/N=C1\C(=O)N(CN2CCCCC2)c2ccccc21 (stereo not given) |  |  | 6 to 19 | 6 to 19 | 6 to 19 | 6 to 19 | 
Cc1nc2ccccc2cc1C(=O)N/N=C1\C(=O)Nc2ccc(F)cc21 |  |  | 6 to 19 | 6 to 19 | 6 to 19 | 6 to 19 | 
CC[C@H]1OC(=O)[C@H](C)[C@@H](O[C@H]2C[C@@](C)(OC)[C@@H](O)[C@H](C)O2)[C@H](C)[C@@H](O[C@@H]2O[C@H](C)C[C@H](N(C)C)[C@H]2O)[C@](C)(O)C[C@@H](C)CN(C)[C@H](C)[C@@H](O)[C@]1(C)O [AZITHROMYCIN] | 6.25 to 12.5 µg/mL |  |  |  |  |  | MIC [7]: 6.25 to 12.5 µg/mL (≈ 8.34 to 16.7 µM); MIC [8]: 6.25 to 12.5 µg/mL (≈ 8.34 to 16.7 µM)
COc1ccc(NC(=O)CN2C(=O)/C(=N\c3cc(C)ccc3C)c3ccccc32)cc1 | 3 to 324 nM | 3 to 324 (≈ 1.24 to 134 ng/mL) |  |  |  |  | 
Cc1ccc(C)c(/N=C2\C(=O)N(CC(=O)Nc3ccc(C)c(C)c3)c3ccccc32)c1 | 3 to 324 nM | 3 to 324 (≈ 1.23 to 133 ng/mL) |  |  |  |  | 
COc1cccc(NC(=O)CN2C(=O)/C(=N\c3ccccc3)c3ccccc32)c1 | 3 to 324 nM | 3 to 324 (≈ 1.16 to 125 ng/mL) |  |  |  |  | 
Cc1ccc(NC(=O)CN2C(=O)/C(=N\c3cc(C)ccc3C)c3ccccc32)c(C)c1 | 3 to 15 nM | 3 to 15 (≈ 1.23 to 6.17 ng/mL) |  |  |  |  | 
Cc1ccc(C2C(Cl)C(=O)N2c2ccc(OCC(=O)N/N=C3\C(=O)N(CN4CCCCC4)c4ccccc43)c3ncccc23)cc1 (stereo not given) |  |  | 6 to 19 | 6 to 19 | 6 to 19 | 6 to 19 | 
Cc1ccc(NC(=O)CN2C(=O)/C(=N\c3ccccc3)c3ccccc32)cc1 | 3 to 324 nM | 3 to 324 (≈ 1.11 to 120 ng/mL) |  |  |  |  | 
Cc1c(C)c2c(c(C)c1O)CCC(C)(C(=O)N/N=C1\C(=O)N(C)c3ccccc31)O2 (stereo not given) | 12.5 to 100 µg/mL |  |  |  |  |  | MIC [7]: 12.5 to 100 µg/mL (≈ 30.7 to 245 µM); MIC [8]: 12.5 to 100 µg/mL (≈ 30.7 to 245 µM)
Cc1nc2ccccc2cc1C(=O)N/N=C1\C(=O)Nc2ccc([N+](=O)[O-])cc21 |  |  | 6 to 19 | 6 to 19 | 6 to 19 | 6 to 19 | 
Cc1ccc(C)c(/N=C2\C(=O)N(CC(=O)Nc3ccccc3)c3ccccc32)c1 | 3 to 324 nM | 3 to 324 (≈ 1.15 to 124 ng/mL) |  |  |  |  | 
O=C(COc1ccc(N2C(=O)C(Cl)C2c2ccccc2)c2cccnc12)N/N=C1\C(=O)N(CN2CCCCC2)c2ccccc21 (stereo not given) |  |  | 6 to 19 | 6 to 19 | 6 to 19 | 6 to 19 | 
